Experimental findings from patent publication US8609849B1, “Hydroxylated sulfamides exhibiting neuroprotective action and their method of use” (Fox Chase Chemical Diversity Center, Inc., priority 2010, dated 2013) are described below.

Structures are written as SMILES. pEC50: −log10 of the molar value.

The subject of assay [1] is Hippocampal Cultures. As to the kind of experiment: Neuroprotection from hydrogen peroxide (oxidative stress), propidium iodide assay. Type of assay: cell-based. The following applies: Rattus norvegicus, read-out: NP from HP PI EC50. The text has this:
(§1) Cell cultures: All compounds are screened with dissociated hippocampal cultures derived from embryonic day 18 rats as the primary test system. With this preparation, primary neurons are used to test for toxicity as well as neuroprotection in a highly relevant experimental system to epilepsy. In brief, hippocampal tissue are obtained commercially through Brain Bits (Springfield, Ill.) and cultures prepared as previously described by Brewer (Brewer, G. J. Serum-free B27/neurobasal medium supports differentiated growth of neurons from the striatum, substantia nigra, septum, cerebral cortex, cerebellum and dentate gyms, J. Neurosci. Res. 1995, 42, 674-683.). The hippocampal neurons are platted at low density (10,000 cell/well) in a 96-well format and maintained in serum-free medium consisting of Neurobasal Medium supplemented with B27 and GlutaMAX (Gibco). Pre-coated poly-L-lysine coated plates are used because of the preferential adherence and survival of hippocampal neurons on this matrix support.
(§2) Potent neuroprotection is the distinguishing characteristic that separates this program's anticonvulsants from all other commercial drugs for epilepsy. The experimental details and the rationale for the implemented assays are essential in differentiating these compounds from that of others. The central objective of all neuroprotective assays was their relevancy to excitotoxicity and oxidative stress related to epilepsy. Both the amount of glutamate and hydrogen peroxide used in the assays, as well as the time of treatment and duration of the experiment, were designed to be relevant to epilepsy. Further, all time parameters employed in these studies were empirically determined to be within the limits of reversible toxic events, yet using amounts of glutamate and hydrogen peroxide that were relevant to the disease. In regard to glutamate toxicity, a critical feature was the duration of treatment of the hippocampal neurons. The rational for using a short 5 min treatment with glutamate was based on the observation of Randall and Thayer (Randall, R. D.; Thayer, S. A. Glutamate-induced calcium transient triggers calcium overload and neurotoxicity in rat hippocampal neurons, J. Neurosci. 1992, 12, 1882-1895). […] The rationale is that this intense burst of glutamate and resulting calcium overload is relevant to seizures and therefore was important data to capture in the screening assay. The amount of glutamate (30 μM) employed in our screening was based on the basal levels of glutamate observed in microdialysis measurements of hippocampus from epileptogenic patients (Cavus et al. Decreased hippocampal volume on MRI is associated with increased extracellular glutamate in epilepsy patients, Epilepsia, 2008, 49, 1358-1366.). In regard to hydrogen peroxide, the amount employed (10 μM) was detected in the hippocampus of rats after kainate-induced status epilepticus (Jarrett et. al., Mitochondrial DNA damage and impaired base excision repair during epileptogenesis, Neurobiol. Dis. 2008, 30, 130-138). To produce neural damage and death with these amounts of glutamate and hydrogen peroxide, the cultures were changed to a medium with significant depletion of antioxidant components in the defined medium supplement B-27 just prior to treatment with the compounds. This was performed to obtain a significant and reproducible toxic signal in the hippocampal neurons and because loss of antioxidant control may be a component of epileptogenesis (Waldbaum and Patel, Mitochondria, oxidative stress and temporal lobe epilepsy, Epilepsy Res. 2010 88, 23-45.; Wu et al., Mitochondrial DNA mutation-elicited oxidative stress, oxidative damage, and altered gene expression in cultured cells of patients with MERRF syndrome, Mol. Neurobiol. 2010, 41, 256-266.). Neuroprotection studies with hydrogen peroxide were conducted with cultures that were between day 12 and day 18. Studies of neuroprotection glutamate were conducted between day 19 and day 22. […]

In assay [2] the test system is Hippocampal Cultures. As to the kind of experiment: Neuroprotection from hydrogen peroxide (oxidative stress), CFDA assay. Type of assay: cell-based. The note with it: Rattus norvegicus, read-out: NP from HP CFDA EC50.
Source text: as §1, §2

Assay [3] deals with Hippocampal Cultures. In words: Neuroprotection from glutamate (excitotoxicity), CFDA assay. Type of assay: cell-based. The note with it: Rattus norvegicus, read-out: NP from Glutamate CFDA EC50.
Source text: as §1, §2

For assay [4], the system named is Hippocampal Cultures. In words: Neuroprotection from glutamate (excitotoxicity), propidium iodide assay. The following applies: Rattus norvegicus, read-out: NP from Glutamate PI EC50. Type of assay: cell-based.
Source text: as §1, §2

The next assay relates to mice. As to the kind of experiment: Maximal Electroshock Test (anti-seizure test). In kind it is in vivo. The text has this: Seizure-related assays, Maximal electroshock test: The most definitive assay for antiseizure activity is the maximal electroshock (MES) test (Swinyard, E. A. Laboratory evaluation of antiepileptic drugs: review of laboratory methods, Epilepsia, 1969, 10, 107-119.). […] With both rodent assays, the duration of action is of high importance as well as the potency of the response.
For orientation: Protection in the maximal electroshock model is a classic sign of anticonvulsant action.

Where [5] appears, read: 10 μM hydrogen peroxide, hippocampal cultures, propidium iodide (cell death).
Setting [6] is: 10 μM hydrogen peroxide, hippocampal cultures, CFDA (neuronal viability).
Where [7] appears, read: 30 μM glutamate, hippocampal cultures, CFDA (neuronal viability).
Where [8] appears, read: 30 μM glutamate, hippocampal cultures, propidium iodide (cell death).

With `NS(=O)(=O)NCCC(O)c1ccccc1Cl` (stereo not shown) [Example 1, 3-(2-Chloro-phenyl)-3-hydroxypropyl-1-sulfamide], the pEC50 in the assay on Hippocampal Cultures [1] (setting [5]) is 6.00; in the assay with Hippocampal Cultures [2] (setting [6]), 4.52; in the assay on Hippocampal Cultures [3] (setting [7]), 7.00; in the assay on Hippocampal Cultures [4] (setting [8]), 7.00. Besides, in the assay with mice (no dose given), the “MES Duration” value stood at 2 h.

With `NS(=O)(=O)NCCC(O)c1csc2ccccc12` (stereo not shown) [Example 2, 3-Benzo[b]thiophen-3-yl-3-hydroxypropyl-1-sulfamide], the negative logarithm of the EC50 (pEC50) in the assay on Hippocampal Cultures [1] is 4.52; with Hippocampal Cultures [2], 5.52; in the assay on Hippocampal Cultures [3], 4.00; in the assay on Hippocampal Cultures [4] it was 5.52.

Regarding `CC(O)(CCNS(N)(=O)=O)c1ccccc1Cl` (stereo not shown) [Example 3, 3-(2-Chloro-phenyl)-3-hydroxybutanyl-1-sulfamide], the pEC50 in the assay on Hippocampal Cultures [1] is less than 3.52; with Hippocampal Cultures [2], 3.52; with Hippocampal Cultures [3], less than 3.52; in the assay with Hippocampal Cultures [4], less than 3.52.

Regarding `CC(C)(CNS(N)(=O)=O)C(O)c1ccccc1F` (stereo not shown) [Example 5, 3-(2-Fluoro-phenyl)-3-hydroxy-2,2-dimethylpropyl-1-sulfamide], the pEC50 was less than 3.52 in the assay on Hippocampal Cultures [1], less than 3.52 in the assay on Hippocampal Cultures [2], 7.00 in the assay with Hippocampal Cultures [3] and 7.00 in the assay with Hippocampal Cultures [4].

For `NS(=O)(=O)NCCC(O)c1ccccc1F` (stereo not shown) [Example 6, 3-(2-Fluoro-phenyl)-3-hydroxypropyl-1-sulfamide], the pEC50 was 8.00 in the assay with Hippocampal Cultures [1] (setting [5]), 8.00 in the assay on Hippocampal Cultures [2] (setting [6]), 6.00 in the assay with Hippocampal Cultures [3] (setting [7]) and 7.00 with Hippocampal Cultures [4] (setting [8]). In addition, the “MES Duration” value with mice (at 100 mg/kg) is 4 hr at 100 mg/kg.

With `NS(=O)(=O)NCCC(O)c1cc(F)ccc1F` (stereo not shown) [Example 7, 3-(2,5-Difluoro-phenyl)-3-hydroxypropyl-1-sulfamide], the pEC50 in the assay with Hippocampal Cultures [1] was 9.00; in the assay with Hippocampal Cultures [2], 8.00; with Hippocampal Cultures [3] it was 4.52; in the assay with Hippocampal Cultures [4], 5.52.

With `NS(=O)(=O)NCCC(O)c1ccc(F)cc1Cl` (stereo not shown) [Example 8, N-[3-(2-Chloro-4-fluoro-phenyl)-3-hydroxy-propyl]-sulfamide], the pEC50 was less than 3.52 in the assay with Hippocampal Cultures [1] (setting [5]), less than 3.52 in the assay with Hippocampal Cultures [2] (setting [6]), less than 3.52 with Hippocampal Cultures [3] (setting [7]) and 5.00 with Hippocampal Cultures [4] (setting [8]).

With `NS(=O)(=O)NCCC(O)c1ccccc1` (stereo not shown) [Example 9, N-(3-phenyl-3-hydroxy-propyl)-sulfamide], the negative-log EC50 (pEC50) with Hippocampal Cultures [1] (setting [5]) is less than 3.52; with Hippocampal Cultures [2] (setting [6]), less than 3.52; in the assay with Hippocampal Cultures [3] (setting [7]), 3.52; in the assay with Hippocampal Cultures [4] (setting [8]), less than 3.52.

`CC(O)(CCNS(N)(=O)=O)c1ccccc1F` (stereo not shown) [Example 10, N-[3-(2-Fluoro-phenyl)-3-hydroxy-butyl]-sulfamide]: the negative logarithm of the EC50 (pEC50) in the assay with Hippocampal Cultures [1] (setting [5]) is 3.52; in the assay on Hippocampal Cultures [2] (setting [6]), 7.00; in the assay on Hippocampal Cultures [3] (setting [7]), 5.00; with Hippocampal Cultures [4] (setting [8]), 5.00.

In the case of `Cc1ccccc1C(O)CCNS(N)(=O)=O` (stereo not shown) [Example 11, 3-(2-Methyl-phenyl)-3-hydroxypropyl-1-sulfamide], the pEC50 in the assay on Hippocampal Cultures [3] (setting [7]) and in the assay with Hippocampal Cultures [4] (setting [8]) was less than 3.52 each time.

`CCc1ccccc1C(O)CCNS(N)(=O)=O` (stereo not shown) [Example 12, 3-(2-Ethyl-phenyl)-3-hydroxypropyl-1-sulfamide]: the pEC50 in the assay with Hippocampal Cultures [1] (setting [5]) was 8.00; in the assay on Hippocampal Cultures [2] (setting [6]) it was less than 3.52; in the assay on Hippocampal Cultures [3] (setting [7]), 8.00; in the assay on Hippocampal Cultures [4] (setting [8]), 5.00.

Regarding `NS(=O)(=O)NCCC(O)c1ccccc1Br` (stereo not shown) [Example 13, 3-(2-bromo-phenyl)-3-hydroxypropyl-1-sulfamide], the pEC50 in the assay on Hippocampal Cultures [1] (setting [5]) is 5.00; in the assay on Hippocampal Cultures [2] (setting [6]), 3.52; in the assay with Hippocampal Cultures [3] (setting [7]), 5.00; with Hippocampal Cultures [4] (setting [8]), 4.00.

In the case of `COc1ccccc1C(O)CCNS(N)(=O)=O` (stereo not shown) [Example 14, 3-(2-methoxy-phenyl)-3-hydroxypropyl-1-sulfamide], the pEC50 with Hippocampal Cultures [1] was 8.00; in the assay on Hippocampal Cultures [2] it was 5.00; with Hippocampal Cultures [3] it was 8.00; in the assay on Hippocampal Cultures [4], 7.00.

As to `NS(=O)(=O)NCC[C@H](O)c1ccccc1F` [Example 15, (S)-3-(2-Fluoro-phenyl)-3-hydroxypropyl-1-sulfamide], the pEC50 is 9.00 in the assay with Hippocampal Cultures [1], 9.00 with Hippocampal Cultures [2], 8.00 in the assay with Hippocampal Cultures [3] and 8.00 in the assay on Hippocampal Cultures [4]. Moreover, the “MES Duration” value in the assay with mice (at 100 mg/kg) is on record as 4 hrs at 100 mg/kg.

Turning to `NS(=O)(=O)NCC[C@@H](O)c1ccccc1F` [Example 16, (R)-3-(2-Fluoro-phenyl)-3-hydroxypropyl-1-sulfamide], the pEC50 in the assay with Hippocampal Cultures [1] and in the assay on Hippocampal Cultures [2] was less than 3.52 each time.

In the case of `NS(=O)(=O)NCC[C@@H](O)c1ccccc1Cl` [Example 17, (R)-3-(2-Chloro-phenyl)-3-hydroxypropyl-1-sulfamide], the pEC50 in the assay with Hippocampal Cultures [1] (setting [5]) and in the assay on Hippocampal Cultures [2] (setting [6]) was less than 3.52 throughout.

Turning to `NS(=O)(=O)NCC[C@H](O)c1ccccc1Cl` [Example 18, (S)-3-(2-Chloro-phenyl)-3-hydroxypropyl-1-sulfamide], the negative-log EC50 (pEC50) in the assay with Hippocampal Cultures [1] (setting [5]) was 9.00; with Hippocampal Cultures [2] (setting [6]), 9.00; in the assay with Hippocampal Cultures [3] (setting [7]) it was 6.00; in the assay on Hippocampal Cultures [4] (setting [8]), 7.00.

Consider `NS(=O)(=O)N1CCC(O)(c2ccccc2F)CC1` [Example 19, 4-(2-Fluorophenyl)-4-hydroxypiperidine-1-sulfonamide], for which the negative-log EC50 (pEC50) was 6.00 in the assay with Hippocampal Cultures [1] (setting [5]), 6.00 in the assay on Hippocampal Cultures [2] (setting [6]), 6.00 in the assay on Hippocampal Cultures [3] (setting [7]) and 9.00 in the assay with Hippocampal Cultures [4] (setting [8]). The “MES Duration” value with mice (at 100 mg/kg) is recorded as 6 hrs at 100 mg/kg.

As for `NS(=O)(=O)NCCC(O)c1ccccc1C(F)(F)F` (stereo not shown) [Example 20, 3-(2-Trifluoromethyl-phenyl)-3-hydroxypropyl-1-sulfamide], the pEC50 in the assay with Hippocampal Cultures [3] and in the assay with Hippocampal Cultures [4] was less than 3.52 in each case.

As to `NS(=O)(=O)NCCC(O)c1ccccc1[N+](=O)[O-]` (stereo not shown) [Example 21, 3-(2-Nitro-phenyl)-3-hydroxypropyl-1-sulfamide], the negative logarithm of the EC50 (pEC50) was less than 3.52 in the assay on Hippocampal Cultures [3] and 5.00 with Hippocampal Cultures [4].

As to `NS(=O)(=O)NCCC(O)c1c(F)cccc1F` (stereo not shown) [Example 22, 3-(2,6-Difluoro-phenyl)-3-hydroxypropyl-1-sulfamide], the negative logarithm of the EC50 (pEC50) is 8.00 in the assay with Hippocampal Cultures [1], 6.00 in the assay on Hippocampal Cultures [2], 4.00 in the assay on Hippocampal Cultures [3] and 3.52 in the assay with Hippocampal Cultures [4].

Consider `NS(=O)(=O)NCCC(O)c1ccccc1-c1ccccc1` (stereo not shown) [Example 23, 3-(2-Phenyl-phenyl)-3-hydroxypropyl-1-sulfamide], for which the pEC50 in the assay with Hippocampal Cultures [3] (setting [7]) was 5.00; in the assay on Hippocampal Cultures [4] (setting [8]), 3.52.

Take `NS(=O)(=O)NCCC(O)c1ccccc1-c1cncc(Cl)c1` (stereo not shown) [Example 24, 3-[2-(5-Chloro-pyridine-3-yl)-phenyl]-3-hydroxypropyl-1-sulfamide]: the pEC50 in the assay on Hippocampal Cultures [3] (setting [7]) is 5.00; in the assay with Hippocampal Cultures [4] (setting [8]) it was less than 3.52.

For orientation: pEC50 means −log10 of the EC50, conventionally taken in molar units.
